From PMC12059629, “N-Terminal domain homologs of the orange carotenoid protein increase quenching of cyanobacterial phycobilisomes” (Plant Physiology, 2024)

Target: T1, HCP4 (AnHCP4, holo-HCP4) (Nostoc sp. PCC 7120 = FACHB-418, UniProt Q8YMJ2)
T1 construct: gene all4941; C-terminal His-tag (pCDF-all4941-Ctag), expressed in E. coli BL21(DE3) with pAC-CANthipi; holo separated from apo on MonoQ
T1 sequence (Q8YMJ2 1-171): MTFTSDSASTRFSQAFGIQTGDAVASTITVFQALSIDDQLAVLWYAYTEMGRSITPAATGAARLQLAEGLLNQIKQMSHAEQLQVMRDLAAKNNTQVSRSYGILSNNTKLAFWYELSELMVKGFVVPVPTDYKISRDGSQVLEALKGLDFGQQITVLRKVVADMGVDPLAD
Assay: holoprotein purified from carotenoid-producing E. coli; separated from apoprotein by anion exchange; absorbance at […] nm
Type: binding
Settings: 50 mM Tris pH 8; 1:1 HCP4:CAN ratio used for quantification

CC1=C(/C=C/C(C)=C/C=C/C(C)=C/C=C/C=C(C)/C=C/C=C(C)/C=C/C2=C(C)C(=O)CCC2(C)C)C(C)(C)CCC1=O [canthaxanthin]
holoprotein purified from carotenoid-producing E. coli; separated from apoprotei: For HCP4, the holoprotein was eluted in the flow through and column wash
